Tests used:
[1] = test system: MOOVA (Monochoria); test: Postemergence weed control under flooded paddy conditions; format: in vivo, Monochoria vaginalis; details: postemergence weeds, 3-4 weeks after treatment
How it was run: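 Injury ratings (0–9 scale covering stand, vigor, malformation, size, chlorosis and overall appearance versus control) were made three to four weeks after treatment. Test material, about 0.0313 to 0.500 kg/ha a.i. in 50/50 v/v aqueous/acetone, was added to flood water 1.5 to 3 cm deep over 3 to 5 cm weeds and 1.5 to 2.5 leaf rice.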

[2] = test system: TRZAWR (Wheat, Winter, cv Riband); test: Preemergence herbicidal evaluation; format: in vivo, Triticum aestivum; details: rated 4-5 weeks after treatment
How it was run: (§1)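 Scores use a 0–9 visual scale covering stand, vigor, malformation, size and chlorosis relative to controls, rated four to five weeks after treatment. Before emergence, soil-planted seeds were sprayed with compound in aqueous acetone at roughly 0.0156–0.500 kg/ha and held in the greenhouse.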

[3] = test system: CASOB (Sicklepod); test: Postemergence herbicidal evaluation; format: in vivo, Cassia obtusifolia; details: for CASOB herbicidal rating: postemergence
How it was run: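 Each compound, dispersed in an acetone/water mix (50/50) carrying 0.5% TWEEN 20, is nozzle-sprayed at 40 psi on approximately two-week-old seedlings at about 0.0156–0.500 kg/ha. Plants are assessed 4–5 weeks afterward on a 0–9 scale relative to control; duplicate tests are averaged.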

[4] = test system: ORYSAT (Rice, Tebonnet); test: Preemergence herbicidal evaluation; format: in vivo, Oryza sativa, (L.) Tebonnet; details: rated 4-5 weeks after treatment
How it was run: as §1

[5] = test system: GLXMAW (Soybean, Williams); test: Preemergence herbicidal evaluation; format: in vivo, Glycine max, (L.) Merr. cv Williams; details: rated 4-5 weeks after treatment
How it was run: as §1

[6] = test system: SAGPY (Arrowhead (Pygmaea)); test: Preemergence weed control under flooded paddy conditions; format: in vivo, Sagittaria pygmaea; details: rated 3-4 weeks after treatment
How it was run: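 Values are visual 0-9 scores against a control for a preemergence application into paddy flood water at about 0.0313 to 0.500 kg/ha. Greenhouse duration was three to four weeks.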

Structure (SMILES) | Herbicidal rating MOOVA ([1]; rate 0.0313 kg/ha) | Herbicidal rating MOOVA ([1]; rate 0.0625 kg/ha) | Herbicidal rating MOOVA ([1]; rate 0.1250 kg/ha) | Herbicidal rating MOOVA ([1]; rate 0.2500 kg/ha) | Preemergence herbicidal rating TRZAWR ([2]; rate 0.0313 kg/ha) | Preemergence herbicidal rating TRZAWR ([2]; rate 0.0625 kg/ha) | Preemergence herbicidal rating TRZAWR ([2]; rate 0.1250 kg/ha) | Preemergence herbicidal rating TRZAWR ([2]; rate 0.2500 kg/ha) | Preemergence herbicidal rating ORYSAT ([4]; rate 0.0313 kg/ha) | Preemergence herbicidal rating ORYSAT ([4]; rate 0.0625 kg/ha) | Preemergence herbicidal rating ORYSAT ([4]; rate 0.1250 kg/ha) | Preemergence herbicidal rating ORYSAT ([4]; rate 0.2500 kg/ha) | Preemergence herbicidal rating GLXMAW ([5]; rate 0.0313 kg/ha) | Preemergence herbicidal rating GLXMAW ([5]; rate 0.0625 kg/ha) | Preemergence herbicidal rating GLXMAW ([5]; rate 0.1250 kg/ha) | Preemergence herbicidal rating GLXMAW ([5]; rate 0.2500 kg/ha) | Herbicidal rating SAGPY ([6]; 0.0313 kg/ha) | Herbicidal rating SAGPY ([6]; 0.0625 kg/ha) | Herbicidal rating SAGPY ([6]; 0.1250 kg/ha) | Herbicidal rating SAGPY ([6]; 0.2500 kg/ha) | other results
CCOC(=O)CN1C(=O)CSC1=Nc1cc(N2C(=O)C3=C(CCCC3)C2=O)c(F)cc1Cl [Compound 47, Ethyl 2-{[2-chloro-5-(1-cyclohexene-1,2-dicarboximido)-4-fluorophenyl]imino}-4-oxo-3-thiazolidineacetate] | 5.0 | 6.0 | 9.0 | 9.0 | 0.0 | 0.0 | 0.0 | 0.0 | 0.0 | 0.0 | 0.0 | 0.0 | 0.0 | 0.0 | 0.0 | 0.0 | 0.0 | 0.0 | 4.0 | 7.0 | Preemergence herbicidal rating TRZAWR ([2]; rate 0.0156 kg/ha): 0.0; Postemergence herbicidal rating CASOB ([3]; Rate 0.0156 kg/ha): 0.0; Postemergence herbicidal rating CASOB ([3]; Rate 0.0313 kg/ha): 2.0; Postemergence herbicidal rating CASOB ([3]; Rate 0.0625 kg/ha): 2.0; Preemergence herbicidal rating ORYSAT ([4]; rate 0.0156 kg/ha): 0.0; Preemergence herbicidal rating GLXMAW ([5]; rate 0.0156 kg/ha): 0.0
CCOC(=O)CN1C(=O)C(CC(=O)OCc2ccccc2)OC1=Nc1cc(-n2c(=O)cc(C(F)(F)F)n(C)c2=O)c(F)cc1Cl (stereo not drawn) [Compound 40, 2-{{2-Chloro-5-[3,6-dihydro-3-methyl-2,6-dioxo-4-(trifluoromethyl)-1(2H)-pyrimidinyl]-4-fluorophenyl}imino}-4-oxo-3,5-oxazolidinediacetic acid, 5-benzyl ethyl ester] | 9.0 | 9.0 | 9.0 | 9.0 | 0.0 | 0.0 | 0.0 | 1.0 | 0.0 | 0.0 | 0.0 | 1.0 | 0.0 | 0.0 | 1.0 | 3.0 | 0.0 | 0.0 | 0.0 | 0.0 | Postemergence herbicidal rating CASOB ([3]; Rate 0.0158 kg/ha): 0.0; Postemergence herbicidal rating CASOB ([3]; Rate 0.0315 kg/ha): 2.0; Postemergence herbicidal rating CASOB ([3]; Rate 0.0630 kg/ha): 5.0
CCOC(=O)CN1C(=O)C(C)SC1=Nc1cc(-n2c(=O)cc(C(F)(F)F)n(C)c2=O)c(F)cc1Cl (stereo not drawn) [Compound 12] | 9.0 | 9.0 | 9.0 | 9.0 | – | – | – | – | – | – | – | – | – | – | – | – | 0.0 | 1.0 | 4.0 | 0.0 | TRZAWR preemergence herbicidal rating ([2]; rate 0.0156 kg/ha): 0.0; TRZAWR preemergence herbicidal rating ([2]; rate 0.0313 kg/ha): 1.0; TRZAWR preemergence herbicidal rating ([2]; rate 0.0625 kg/ha): 5.0; TRZAWR preemergence herbicidal rating ([2]; rate 0.1250 kg/ha): 8.0; TRZAWR preemergence herbicidal rating ([2]; rate 0.2500 kg/ha): 8.0; CASOB herbicidal rating ([3]; rate 0.0156 kg/ha): 0.0; CASOB herbicidal rating ([3]; rate 0.0313 kg/ha): 3.0; CASOB herbicidal rating ([3]; rate 0.0625 kg/ha): 7.0; CASOB herbicidal rating ([3]; rate 0.1250 kg/ha): 9.0; ORYSAT preemergence herbicidal rating ([4]; rate 0.0156 kg/ha): 0.0; ORYSAT preemergence herbicidal rating ([4]; rate 0.0313 kg/ha): 1.0; ORYSAT preemergence herbicidal rating ([4]; rate 0.0625 kg/ha): 4.0; ORYSAT preemergence herbicidal rating ([4]; rate 0.1250 kg/ha): 7.0; ORYSAT preemergence herbicidal rating ([4]; rate 0.2500 kg/ha): 7.0; GLXMAW preemergence herbicidal rating ([5]; rate 0.0156 kg/ha): 1.5; GLXMAW preemergence herbicidal rating ([5]; rate 0.0313 kg/ha): 2.0; GLXMAW preemergence herbicidal rating ([5]; rate 0.0625 kg/ha): 3.5; GLXMAW preemergence herbicidal rating ([5]; rate 0.1250 kg/ha): 6.5; GLXMAW preemergence herbicidal rating ([5]; rate 0.2500 kg/ha): 9.0
Cn1c(C(F)(F)F)cc(=O)n(-c2cc(N=C3SCC(=O)N3CC(=O)NS(C)(=O)=O)c(Cl)cc2F)c1=O [Compound 38, 2-{{2-Chloro-5-[3,6-dihydro-3-methyl-2,6-dioxo-4-(trifluoromethyl)-1(2H)-pyrimidinyl]-4-fluoro-phenyl}imino}-N-(methylsulfonyl)-4-oxo-3-thiazolidineacetamide] | 9.0 | 9.0 | 9.0 | 9.0 | 0.0 | 0.0 | 2.0 | 7.0 | 0.0 | 0.0 | 0.0 | 2.0 | 0.0 | 2.0 | 2.0 | 6.0 | 0.0 | 3.0 | 4.0 | 9.0 | Postemergence herbicidal rating CASOB ([3]; Rate 0.0156 kg/ha): 0.0; Postemergence herbicidal rating CASOB ([3]; Rate 0.0313 kg/ha): 1.0; Postemergence herbicidal rating CASOB ([3]; Rate 0.0625 kg/ha): 2.0; Postemergence herbicidal rating CASOB ([3]; Rate 0.1250 kg/ha): 3.0; Postemergence herbicidal rating CASOB ([3]; Rate 0.2500 kg/ha): 3.0
C=CCN1C(=O)CSC1=Nc1cc(-n2c(=O)cc(C(F)(F)F)n(C)c2=O)c(F)cc1Cl [Compound 27] | 9.0 | 9.0 | 9.0 | 9.0 | – | 3.0 | 7.0 | 9.0 | 0.0 | 3.0 | 3.0 | 8.0 | 0.0 | 9.0 | 9.0 | 7.0 | 0.0 | 0.0 | 4.0 | 4.0 | Preemergence herbicidal rating TRZAWR ([2]; rate 0.0156 kg/ha): 0.0; CASOB herbicidal rating ([3]; rate 0.0158 kg/ha): 1.0; CASOB herbicidal rating ([3]; rate 0.0315 kg/ha): 1.0; CASOB herbicidal rating ([3]; rate 0.0630 kg/ha): 1.0; Preemergence herbicidal rating ORYSAT ([4]; rate 0.0156 kg/ha): 0.0; Preemergence herbicidal rating GLXMAW ([5]; rate 0.0156 kg/ha): 0.0

Source: US20020137929A1, “1 - (3-heterocyclylphenyl) isothiourea, -isourea, -guanidine and -amidine herbicidal agents” (Intellectual Property Department, BASF Aktiengesellschaft, priority 1998, published 2002)
